Structures can show the parent of a compound that is named as a salt.
Row | SMILES | melting point
1 | CCOCCCN(C)Cc1ccc(NC(=O)C2=Cc3cc(-c4ccc(OCC)cc4)ccc3N(C)CC2)cc1 [Compound 319, N-(4-((N-(3-ethoxypropyl)-N-methylamino)methyl)phenyl)-7-(4-ethoxyphenyl)-1-methyl-2,3-dihydro-1-benzazepine-4-carboxamide] | 129 to 131 °C
2 | Cc1ccc(-c2ccc3c(c2)C=C(C(=O)Nc2ccc(C(O)c4ccccn4)cc2)C(C)O3)cc1 (stereo not drawn) [Compound 202, N-[4-[hydroxy(2-pyridyl)methyl]-phenyl]-6—(4-methylphenyl)-2-methyl-2H-1-benzopyran-3-carboxamide] | 202 to 205 °C
3 | Cc1ccc(-c2ccc3c(c2)C=C(C(=O)Nc2ccc(CP4(=O)OCCCO4)cc2)CCO3)cc1 [Ref Ex 51, 2—(4—(7—(4-methylphenyl)-2,3-dihydro-1-benzoxepin-4-carbonylamino)benzyl)-1,3,2-dioxaphosphorinane-2-oxide] | 268 to 269 °C
4 | CCCP(=O)(CCC)Cc1ccc(NC(=O)C2=Cc3cc(-c4ccc(C)cc4)ccc3OCC2)cc1 [Compound 168, N-(4-dipropylphosphorylmethylphenyl)-7—(4-methylphenyl)-2,3-dihydro-1-benzoxepine-4-carboxamide] | 219 to 220 °C
5 | Cc1ccc(-c2ccc3c(c2)C=C(C(=O)Nc2ccc(CN4CCCCC4)cc2)C3)cc1 [Compound 60, N-[4—(piperidinomethyl)phenyl]-5—(4-methylphenyl)indene-2-carboxamide] | 219 to 220 °C
6 | CN(C)Cc1ccc(NC(=O)C2=Cc3cc(-c4ccccc4)ccc3CC2)cc1 [Compound 6, N-[4—(dimethylaminomethyl)-phenyl]-7-phenyl-3,4-dihydro-naphthalene-2-carboxamide] | 182 to 184 °C
7 | COCCN(C)Cc1ccc(NC(=O)C2=Cc3cc(-c4ccc(C)cc4)ccc3OCC2)cc1 [Compound 314, N-(4-((N-(2-methoxyethyl)-N-methylamino)methyl)phenyl)-7-(4-methylphenyl)-2,3-dihydro-1-benzoxepine-4-carboxamide] | 121 to 122 °C
8 | COc1ccc[n+]([O-])c1C(O)c1ccc(NC(=O)C2=Cc3cc(-c4ccc(C)cc4)ccc3OCC2)cc1 (stereo not drawn) [Compound 170, N-[4-[hydroxy(3-methoxy-1-oxidopyridin-2-yl)methyl]phenyl]-7—(4-methylphenyl)-2,3-dihydro-1-benzoxepine-4-carboxamide] | 242 °C (dec.)
9 | Cc1ccc(-c2ccc3c(c2)C=C(C(=O)Nc2ccc(C(O)CN4CCCCC4)cc2)CCO3)cc1 (stereo not drawn) [Compound 145, N-(4—(1-hydroxy-2-piperidinoethyl)phenyl)-7—(4-methylphenyl)-2,3-dihydro-1-benzoxepine-4-carboxamide] | 212 to 213 °C
10 | Cc1ccc(-c2cc3c(s2)CCCC(C(=O)Nc2ccc(CN(C)C4CCOCC4)cc2)=C3)cc1 [Compound 214, N-[4-[N-methyl-N-(tetrahydropyran-4-yl)aminomethyl]-phenyl]-2—(4-methylphenyl)-7,8-dihydro-6H-cyclohepta-[b]thiophene-5-carboxamide] | 201 to 203 °C
11 | Cc1ccc(-c2cccc(/C=C/C(=O)Nc3ccc(CN4CCCC(CO)C4)cc3)c2)cc1 (stereo not drawn) [Compound 66, (E)-N-[4-[3—(hydroxy-methyl)piperidinomethyl]phenyl]-3—(4-methylphenyl)cinnamamide] | 153 to 154 °C
12 | Cc1ccc(-c2ccc3c(c2)C=C(C(=O)Nc2ccc(CN4CCCCC4)cc2)CC(C)O3)cc1 (stereo not drawn) [Compound 105, 7—(4-methylphenyl)-2-methyl-N-(4—(piperidinomethyl)phenyl)-2,3-dihydro-1-benzoxepine-4-carboxamide] | 175 to 176 °C
13 | CN(Cc1ccc(NC(=O)/C=C/c2ccc(-c3ccc(C(C)(C)C)cc3)s2)cc1)C1CCOCC1 [Compound 276, (E)-3-[5-(4-tert-butylphenyl)thiophen-2-yl]-N-[4-[N-methyl-N-(tetrahydropyran-4-yl)aminomethyl]phenyl]acrylamide] | 216 to 220 °C
14 | CCCP(=O)(CCC)Cc1ccc(NC(=O)/C=C/c2cccc(-c3ccc(C)cc3)c2)cc1 [Compound 194, (E)-N-(4-dipropylphosphorylmethylphenyl)-3—(4-methylphenyl)cinnamamide] | 225 to 227 °C
15 | Cc1ccc(-c2ccc3c(c2)C=C(C(=O)Nc2ccc(CCN4CCCCC4)cc2)CCO3)cc1 [Compound 99, N-(4—(2-piperidinoethyl)phenyl)-7—(4-methylphenyl)-2,3-dihydro-1-benzoxepine-4-carboxamide] | 201 to 202 °C
16 | O=C(Nc1ccc(CN2CCOCC2)cc1)C1=Cc2cc(-c3ccccc3)ccc2CC1 [Compound 8, N-[4—(morpholinomethyl)-phenyl]-7-phenyl-3,4-dihydronaphthalene-2-carboxamide] | 186 to 187 °C
17 | O=C(Nc1ccc(CN2CCCCC2)cc1)C1=Cc2cc(-c3ccc(F)cc3)ccc2CC1 [Compound 15, 7—(4-fluorophenyl)-N-[4—(piperidinomethyl)phenyl]-3,4-dihydronaphthalene-2-carboxamide] | 175 to 176 °C
18 | Cc1ccc(-c2ccc3c(c2)C=C(C(=O)Nc2ccc(CNCc4ccccc4)cc2)CCO3)cc1 [Compound 117, N-(4—((benzylamino)methyl)phenyl)-7—(4-methylphenyl)-2,3-dihydro-1-benzoxepine-4-carboxamide] | 147 to 148 °C

Row | SMILES | melting point
19 | Cc1ccc(-c2ccc3c(c2)C=C(C(=O)Nc2ccc(CSC4CCCCC4)cc2)CCO3)cc1 [Compound 53, N-(4—(cyclohexylthiomethyl)-phenyl)-7—(4-methylphenyl)-2,3-dihydro-1-benzoxepine-4-carboxamide] | 161 to 162 °C
20 | COc1ccc(CCN(C)Cc2ccc(NC(=O)/C=C/c3cccc(-c4ccc(C)cc4)c3)cc2)cc1OC.Cl | 214 to 217 °C
21 | Cc1ccc(-c2cccc(/C=C/C(=O)Nc3ccc(-c4ccccn4)cc3)c2)cc1 [Compound 188, (E)-N-[4—(2-pyridyl)phenyl]-3—(4-methylphenyl)cinnamamide] | 220 to 222 °C
22 | Cc1ccc(-c2ccc3c(c2)C=C(C(=O)Nc2ccc(CN4CCCCC4)cc2)CC(c2ccccc2)O3)cc1 (stereo not drawn) [Compound 102, 7—(4-methylphenyl)-2-phenyl-N-(4—(piperidinomethyl)phenyl)-2,3-dihydro-1-benzoxepine-4-carboxamide] | 210 to 211 °C
23 | COc1ccccc1N1CCN(Cc2ccc(NC(=O)C3=Cc4cc(-c5ccc(C)cc5)ccc4CC3)cc2)CC1 [Compound 41, N-[4-[1—(2-methoxyphenyl)-4-piperazinylmethyl]phenyl]-7—(4-methylphenyl)-3,4-dihydronaphthalene-2-carboxamide] | 202 to 205 °C
24 | CN(Cc1ccc(NC(=O)C2=Cc3cc(-c4ccsc4)ccc3OCC2)cc1)C1CCOCC1 [Compound 291, N-[4-[N-methyl-N-(tetrahydropyran-4-yl)aminomethyl]phenyl]-7-(3-thienyl)-2,3-dihydro-1-benzoxepine-4-carboxamide] | 194 to 195 °C
25 | COc1ccc(-c2ccc3c(c2)C=C(C(=O)Nc2ccc(CN(C)C4CCC5(CC4)OCCO5)cc2)CCS3)cc1 [Compound 283, N-[4-[N-(4,4-ethylenedioxy-cyclohexyl)-N-methylaminomethyl]phenyl]-7-(4-methoxy-phenyl)-2,3-dihydro-1-benzothiepine-4-carboxamide] | 198 to 201 °C
26 | Cc1ccc(-c2cccc(/C=C/C(=O)Nc3ccc(Cn4ccnc4)cc3)c2)cc1 [Compound 65, (E)-N-[4-[(imidazol-1-yl)methyl]phenyl]-3—(4-methylphenyl)cinnamamide] | 198 to 200 °C
27 | CN(Cc1ccc(NC(=O)C2=Cc3cc(-c4cccnc4)ccc3OCC2)cc1)C1CCOCC1 [Compound 146, 7—(3-pyridyl)-N-(4—((N-tetrahydropyran-4-yl-N-methylamino)-methyl)phenyl)-2,3-dihydro-1-benzoxepine-4-carboxamide] | 158 to 159 °C
28 | Cc1ccc(-c2cccc(/C=C/C(=O)Nc3ccc(CN4CCCCC4CCO)cc3)c2)cc1 (stereo not drawn) [Compound 69, (E)-N-[4-[2—(2-hydroxyethyl)piperidinomethyl]phenyl]-3—(4-methylphenyl)cinnamamide] | 142 to 143 °C
29 | CCOCCCN(C)Cc1ccc(NC(=O)C2=Cc3cc(-c4ccc(C)cc4)ccc3OCC2)cc1 [Compound 312, N-(4-((N-(3-ethoxypropyl)-N-methylamino)methyl)phenyl)-7-(4-methylphenyl)-2,3-dihydro-1-benzoxepine-4-carboxamide] | 119 to 122 °C
30 | Cc1ccc(-c2cccc(/C=C/C(=O)Nc3ccc(CN(C)CC#N)cc3)c2)cc1 [Compound 64, (E)-N-[4-[N-(cyanomethyl)-N-methylaminomethyl]phenyl]-3—(4-methylphenyl)cinnamamide] | 163 to 165 °C
31 | Cc1ccc(-c2ccc3c(c2)C=C(C(=O)Nc2ccc(CNc4ccccc4)cc2)CCO3)cc1 [Compound 115, N-(4—((phenylamino)methyl)phenyl)-7—(4-methylphenyl)-2,3-dihydro-1-benzoxepine-4-carboxamide] | 157 to 158 °C
32 | Cc1ccc(-c2cccc(/C=C/C(=O)Nc3ccc(CN4CCCCC4)cc3)c2)cc1 [Compound 70, (E)-N-[4—(piperidinomethyl)phenyl]-3—(4-methylphenyl)cinnamamide] | 154 to 156 °C
33 | Cc1ccc(-c2ccc3c(c2)C=C(C(=O)Nc2ccc(C(O)c4ccccn4)cc2)CCO3)cc1 (stereo not drawn) [Compound 166, N-[4-[hydroxy(2-pyridyl)-methyl]phenyl]-7—(4-methylphenyl)-2,3-dihydro-1-benzoxepine-4-carboxamide] | 215 to 217 °C
34 | Cc1ccc(-c2ccc3c(c2)C=C(C(=O)Nc2ccc(C[N+]4(C)CCCCC4)cc2)CC3)cc1 (as salt: iodide) [Compound 16, 1-methyl-1-[4-[7—(4-methylphenyl)-3,4-dihydronaphthalene-2-carboxamido]benzyl]piperidinium iodide] | 202 to 204 °C
35 | Cc1ccc(-c2ccc3c(c2)C=C(C(=O)Nc2ccc(C(=O)C4CCCCN4C)cc2)CCO3)cc1 (stereo not drawn) | 162 to 163 °C
36 | Cc1ccc(-c2cccc(/C=C/C(=O)Nc3ccc(CN4CCN(Cc5ccc6c(c5)OCO6)CC4)cc3)c2)cc1 [Compound 57, (E)-N-[4-[1—(3,4-methylenedioxybenzyl)-4-piperazinylmethyl]phenyl]-3—(4-methylphenyl)cinnamamide] | 204 to 207 °C

Reference: patent publication US6413947B1, “Anilide derivative, production and use thereof” (Takeda Chemical Industries, Ltd., priority 1997, dated 2002)
